{
  "source": "paper PMC4213378",
  "about": "“Pharmacokinetics and Efficacy of the Spleen Tyrosine Kinase Inhibitor R406 after Ocular Delivery for Retinoblastoma” (Pharmaceutical Research, 2014)",
  "key": {"[1]": {"assay": "Maximum solubility in PBS or saline", "assay_type": "physicochemical", "conditions": "PBS; read-out: maximum solubility in PBS"}, "[2]": {"assay": "Co-solvent solution formulation solubility matrix", "assay_type": "physicochemical"}, "[3]": {"assay": "Vitreous pharmacokinetics after oral or subconjunctival administration", "assay_type": "in vivo, mouse", "protocol": "For oral delivery of R788, the target dose of 25 mg/kg R788 was administered by oral gavage as a 4 mM solution in 0.01 N citrate buffer, pH 6 ([9]). For subconjunctival administration, R788 was prepared at a concentration of 4 mM in 2% PEG-800 and filtered through a 0.22 μm filter prior to use (see Table S1). R788 was also administered subconjunctivally as a suspension at a concentration of 25 mM in 10% 2-hydroxylpropyl-β-cyclodextrin (HPβCD, Sigma-Aldrich). For subconjunctival administration, R406 phenylsulfonate salt was administered at a concentration of 800–900 μM as a cosolvent solution in a formulation of 5% Cremaphor-eL, 0.5% ethanol, 0.2% Tween 80 and 94.3% PBS, filtered through a 0.22 μm filter prior to use (see Table S2). R406 phenylsulfonate salt was also administered subconjunctivally at a dose of 31.4 mM solution in DMSO. R406 free base was administered subconjunctivally at a concentration of 6.5 mM as a 25% castor oil (Sigma-Aldrich) emulsion. This emulsion was prepared by mixing castor oil: ethanol (1:1) solution of R406 (approx. 35 mM), in vacuo evaporation of the ethanol, and centrifugation to remove any excess R406, then emulsifying the R406 oil phase in an aqueous phase comprised of Cremaphor-eL, Tween 80 and PBS (final composition of the emulsion: 25% castor oil, 5% Cremaphor-eL, 0.2% Tween-80, 69.8% PBS) by probe sonication. For intravitreal injection, R788 solution was prepared by filtering a 0.12 mM (120 μM) solution of R788 in saline through a 0.22 μm filter. […] For topical delivery, 25–30 mM suspensions were prepared in 5% HPβCD. R406 or R788 concentration in all formulations was determined by UPLC prior to study (in cases where formulation was filtered before administration, concentration was determined post-filtering) Table I.\nFor the systemic delivery study R788 was administered as a single bolus dose (25 mg/kg, 10 mL/kg volume) by oral gavage. For the subconjunctival administration study R788 or R406 (10 µL of formulation) was injected into the subconjunctival space of an anesthetized mouse using a Hamilton microliter syringe (Hamilton company, Reno NV). For the intravitreal administration study, R788 (5 μL of […] in saline) was administered to each eye via direct injection. To perform the intravitreal injection, mice were anesthetized, a small incision between the sclera and the cornea was created with a […] needle, and the R788 was injected into the vitreous using a Hamilton microliter syringe. For the topical administration study, R406 (2 μL of 25–30 mM suspension) was applied as a drop to the surface of each eye of an anesthetized mouse.\nAt serial time points (0.5, 1, 2, 4, and 8 h post-injection, n = 3 for each time point), blood was collected by terminal cardiac puncture after isoflurane anesthesia. Whole-blood samples were centrifuged immediately at 10,000×g for 5 min at 4°C to separate plasma. Once the cardiac puncture and blood collection was completed, the animal was perfused with 10 mL of saline and euthanized by cervical dislocation. Eyes were removed, rinsed in PBS, gently patted dry, then rinsed and dried again. Eyes were dissected and vitreous was collected. Plasma and vitreous samples were put on dry ice immediately after collection and stored at −80°C until analysis. For quantitative analysis methods and assay validation methods and results, see Supplementary Information.\nPlasma and vitreous concentration time data were analyzed using non-compartmental analysis in WinNonlin 6.2 (Pharsight, Mountain View, CA), providing PK parameters including Cmax (maximum observed concentration), Tmax (time to reach maximum observed concentration), AUC (area under the concentration time curve) and MRT (mean residence time). AUC and AUMC (area under the concentration time first moment curve) values were estimated with the linear trapezoidal method, with parameters calculated using mean concentration values at each time point. […]"}, "RB355 cells": {"test_system": "RB355 cells", "assay": "Activated caspase 3 immunostaining of RB355 cells", "assay_type": "cell-based"}, "[4]": {"assay": "Storage stability of R406 in murine plasma samples", "assay_type": "physicochemical, mouse", "conditions": "murine plasma at -20°C, thawed on Day 3, injected at Day 3"}, "[5]": {"conditions": "local (subconjunctival), DMSO 31.4 mM, 314 nmol per eye, mice"}, "[6]": {"conditions": "local (subconjunctival), co-solvent solution 0.88 mM, 8.8 nmol per eye, mice"}},
  "data": [
    {"smiles": "COc1cc(Nc2ncc(F)c(Nc3ccc4c(n3)NC(=O)C(C)(C)O4)n2)cc(OC)c1OC.O=S(=O)(O)c1ccccc1", "note": "[R406 phenylsulfonate salt]", "values": [
      {"measurement": "solubility", "setting": "[1]", "value": 0.0004, "unit": "mM"},
      {"measurement": "R406 Solubility", "setting": "[2]; Trial 1: 0.1% Tyloxapol, 99.9% PBS", "value": 11.7, "unit": "mM"},
      {"measurement": "R406 Solubility", "setting": "[2]; Trial 4: 3% Glycerin, 97% PBS", "value": 0.4, "unit": "mM"},
      {"measurement": "R406 Solubility", "setting": "[2]; Trial 5: 5% Cremaphor-eL, 95% PBS", "value": 170.1, "unit": "mM"},
      {"measurement": "R406 Solubility", "setting": "[2]; Trial 6: 10% pG, 90% PBS", "value": 0.4, "unit": "mM"},
      {"measurement": "R406 Solubility", "setting": "[2]; Trial 7: 15% pPG, 85% PBS", "value": 15, "unit": "mM"},
      {"measurement": "R406 Solubility", "setting": "[2]; Trial 8: 0.2% Tween-80, 99.8% PBS", "value": 399.2, "unit": "mM"},
      {"measurement": "R406 Solubility", "setting": "[2]; Trial 9: 100% PBS", "value": 0.4, "unit": "mM"},
      {"measurement": "R406 Solubility", "setting": "[2]; Trial 10: 2% PEG-8000, 0.2% Tween-80, 97.8% PBS", "value": 0.4, "unit": "mM"},
      {"measurement": "R406 Solubility", "setting": "[2]; Trial 11: 0.5% EtOH, 0.2% Tween-80, 85.8% PBS", "value": 0.6, "unit": "mM"},
      {"measurement": "R406 Solubility", "setting": "[2]; Trial 12: 3% Glycerin, 0.2% Tween-80, 96.8% PBS", "value": 1.0, "unit": "mM"},
      {"measurement": "R406 Solubility", "setting": "[2]; Trial 13: 5% Cremaphor-eL, 0.2% Tween-80, 94.8% PBS", "value": 178.0, "unit": "mM"},
      {"measurement": "R406 Solubility", "setting": "[2]; Trial 14: 10% pG, 0.2% Tween-80, 99.8% PBS", "value": 0.9, "unit": "mM"},
      {"measurement": "R406 Solubility", "setting": "[2]; Trial 15: 15% pPG, 0.2% Tween-80, 85.8% PBS", "value": 31.4, "unit": "mM"},
      {"measurement": "R406 Solubility", "setting": "[2]; Trial 16: 2% PEG-8000, 0.5% EtOH, 97.5% PBS", "value": 1.5, "unit": "mM"},
      {"measurement": "R406 Solubility", "setting": "[2]; Trial 17: 2% PEG-8000, 3% Glycerin, 95% PBS", "value": 0.4, "unit": "mM"},
      {"measurement": "R406 Solubility", "setting": "[2]; Trial 18: 2% PEG-8000, 5% Cremaphor-eL, 93% PBS", "value": 144.0, "unit": "mM"},
      {"measurement": "R406 Solubility", "setting": "[2]; Trial 19: 2% PEG-8000, 10% pG, 88% PBS", "value": 1.4, "unit": "mM"},
      {"measurement": "R406 Solubility", "setting": "[2]; Trial 20: 2% PEG-8000, 15% pPG, 83% PBS", "value": 22.9, "unit": "mM"},
      {"measurement": "R406 Solubility", "setting": "[2]; Trial 21: 0.5% EtOH, 3% Glycerin, 96.5% PBS", "value": 0.4, "unit": "mM"},
      {"measurement": "R406 Solubility", "setting": "[2]; Trial 22: 0.5% EtOH, 5% Cremaphor-eL, 94.5% PBS", "value": 183.9, "unit": "mM"},
      {"measurement": "R406 Solubility", "setting": "[2]; Trial 24: 0.5% EtOH, 15% pPG, 84.5% PBS", "value": 18.4, "unit": "mM"},
      {"measurement": "R406 Solubility", "setting": "[2]; Trial 25: 3% Glycerin, 5% Cremaphor-eL, 92% PBS", "value": 183.9, "unit": "mM"},
      {"measurement": "R406 Solubility", "setting": "[2]; Trial 26: 3% Glycerin, 10% pG, 87% PBS", "value": 0.4, "unit": "mM"},
      {"measurement": "R406 Solubility", "setting": "[2]; Trial 27: 3% Glycerin, 15% pPG, 82% PBS", "value": 18.2, "unit": "mM"},
      {"measurement": "R406 Solubility", "setting": "[2]; Trial 28: 5% Cremaphor-eL, 10% pG, 85% PBS", "value": 161.5, "unit": "mM"},
      {"measurement": "R406 Solubility", "setting": "[2]; Trial 29: 5% Cremaphor-eL, 15% pPG, 80% PBS", "value": 138.0, "unit": "mM"},
      {"measurement": "R406 Solubility", "setting": "[2]; Trial 30: 10% pG, 15% pPG, 75% PBS", "value": 23.3, "unit": "mM"},
      {"measurement": "R406 Solubility", "setting": "[2]; Trial 32: 0.5% EtOH, 5% Cremaphor-eL, 0.2% Tween-80, 94.3% PBS", "value": 830.9, "unit": "mM"},
      {"measurement": "R406 Solubility", "setting": "[2]; Trial 33: 0.5% EtOH, 3% Glycerin, 5% Cremaphor-eL, 0.2% Tween-80, 91.3% PBS", "value": 773.9, "unit": "mM"},
      {"measurement": "ratio of vitreous AUC to plasma AUC relative to R788 in suspension (250 nmol per eye)", "setting": "[3]; R406 salt administered locally, 314 nmol total per eye", "value": 22, "unit": "fold"},
      {"measurement": "Cmax", "setting": "[3]; [5]", "value": "892 ± 350", "unit": "nM"},
      {"measurement": "Ratio Vitreous AUClast/Plasma AUClast", "setting": "[3]; [5]", "value": 6.6},
      {"measurement": "Vitreous AUClast", "setting": "[3]; [5]", "value": "1,960 nM∙h"},
      {"measurement": "Vitreous Dose normalized AUC", "setting": "[3]; [5]", "value": 3.1, "unit": "nM∙h/nmol"},
      {"measurement": "Vitreous MRT0-4h", "setting": "[3]; [5]", "value": 121, "unit": "min"},
      {"measurement": "Vitreous Tlast", "setting": "[3]; [5]", "value": 4, "unit": "h"},
      {"measurement": "Vitreous Tmax", "setting": "[3]; [5]", "value": 30, "unit": "min"},
      {"measurement": "Vitreous MRT0-4h", "setting": "[3]; local (subconjunctival), DMSO 31.4 mM, 314 nmol per eye, mice, listed as R406 salt", "value": "≥ 120", "unit": "min"},
      {"measurement": "Cmax", "setting": "[3]; [6]", "value": "41.3 ± 18", "unit": "nM"},
      {"measurement": "Vitreous AUClast", "setting": "[3]; [6]", "value": 33.7, "unit": "nM·h"},
      {"measurement": "Vitreous Dose normalized AUC", "setting": "[3]; [6]", "value": 1.9, "unit": "nM∙h/nmol"},
      {"measurement": "Vitreous MRT0-4h", "setting": "[3]; [6]", "value": 46.9, "unit": "min"},
      {"measurement": "Vitreous Tlast", "setting": "[3]; [6]", "value": 2, "unit": "h"},
      {"measurement": "Vitreous Tmax", "setting": "[3]; [6]", "value": 30, "unit": "min"},
      {"measurement": "Vitreous MRT0-4h", "setting": "[3]; local (subconjunctival), co-solvent solution 0.88 mM, 8.8 nmol per eye, mice, listed as R406 salt", "value": "less than 1 h"}
    ]},
    {"smiles": "COc1cc(Nc2ncc(F)c(Nc3ccc4c(n3)NC(=O)C(C)(C)O4)n2)cc(OC)c1OC", "note": "[R406]", "values": [
      {"measurement": "caspase 3+ activation compared to untreated or DMSO treated cells", "setting": "RB355 cells; 1 μM R406, any exposure time up to 48 h", "value": "did not show any increase in caspase 3+ activation"},
      {"measurement": "proportion of activated caspase 3+ cells", "setting": "RB355 cells; 2.5 and 5 μM R406, 0-72 h exposure", "value": "increased with increasing exposure duration"},
      {"measurement": "minimal exposure required to kill retinoblastoma cells in culture", "setting": "RB355 cells; for at least 12 h", "value": "> 1", "unit": "µM"},
      {"measurement": "maximum intraocular concentration that could be reached from subconjunctival route", "setting": "[3]; DMSO control, 31.4 mM R406 in DMSO, subconjunctival, mice", "value": "approximately 1 μM"},
      {"measurement": "maximal concentration achieved in the vitreous", "setting": "[3]; subconjunctival, 10 μl of R406 solution formulation per eye, mice", "value": 0.05, "unit": "µM"},
      {"measurement": "Accuracy%", "setting": "[4]; High Control 3333.3 nM", "value": 90.3, "unit": "%"},
      {"measurement": "Accuracy%", "setting": "[4]; Low Control 41.2 nM", "value": 96.1, "unit": "%"}
    ]}
  ]
}
